# Values of other authors, collected in patent US20200199640A1, “PROCESS FOR OBTAINING […] A HOST CELL COMPRISING POLYNUCLEOTIDES ENCODING FOR PO[…] IN THE OMPHALOTIN BIOSYNTHESIS” (TECHNISCHE UNIVERSITÄT BERLIN, priority 2017, published 2020).
# Non-standard residues stand in square brackets, D forms with d. Residues, ends and D or L forms follow the SMILES beside them. ξ: configuration not given here. NMeIle(3ξ) = CCC(C)[C@H](NC)C(=O)O; Ile(3ξ) = CCC(C)[C@H](N)C(=O)O; NMeV = CN[C@H](C(=O)O)C(C)C; Sar = CNCC(=O)O
# What was measured:
# Meloidogyne incognita = conditions: literature statement (A. Mayer et al, Pestic. Sci. 1999, 55, 27-30)
# [1] = literature statement (A. Mayer et al, Pestic. Sci. 1999, 55, 27-30)
# [2] = literature statement (A. Mayer et al, Pestic. Sci. 1999, 55, 27-30); remark: listed apart in the source
# [3] = literature statement (A. Mayer et al, Pestic. Sci. 1999, 55, 27-30); remark: listed apart in the source
smiles,measurement,setting,value
CCC(C)[C@@H]1NC(=O)[C@H](C(C)C)N(C)C(=O)[C@H](Cc2c[nH]c3ccccc23)NC(=O)CN(C)C(=O)[C@H](C(C)CC)N(C)C(=O)[C@H](C(C)C)NC(=O)CN(C)C(=O)[C@H](C(C)CC)N(C)C(=O)[C@H](C(C)C)N(C)C(=O)CN(C)C(=O)[C@H](C(C)C)N(C)C(=O)[C@H](C(C)C)N(C)C1=O (stereo partly shown) [Omphalotin A] (cyclo([Ile(3ξ)][NMeV][NMeV][Sar][NMeV][NMeIle(3ξ)][Sar]V[NMeIle(3ξ)][Sar]W[NMeV])),activity against the plant pathogen nematode Meloidogyne incognita,Meloidogyne incognita,strong and selective activity
same,phytotoxic activity,[1],"no further phytotoxic, antibacterial or antifungal activities"
same,antibacterial activity,[2],"no further phytotoxic, antibacterial or antifungal activities"
same,antifungal activity,[3],"no further phytotoxic, antibacterial or antifungal activities"
